One series addresses D-amino-acid oxidase (Homo sapiens, UniProt P14920). As to the kind of experiment: Inhibition of recombinant human DAAO assessed as oxidative deamination of D-serine in presence of molecular oxygen and FAD after 20 mins.
Series [1] in a line: Metabolic stability in mouse liver microsomes assessed as compound remaining after 60 mins by LC-MS/MS analysis in presence of NADPH. The conditions noted are these: for Stability: microsomes, 1 h. The class given is ADME.
Series [2] is described as follows: Metabolic stability in mouse liver microsomes assessed as compound remaining after 60 mins by LC-MS/MS analysis in presence of UDPGA. It is filed as ADME. The conditions noted are these: for Stability: microsomes, 1 h.
The test system of series [3] is Mus musculus. Put plainly: In-vivo inhibition of DAAO in CD-1 mouse assessed as increase in D-serine AUC (0 to 6 hrs) at 30 mg/kg, po relative to control. The class given is functional.
Series [4] is described as follows: Tmax in CD-1 mouse plasma by HPLC-MS analysis. It is filed as ADME, organism-based.
For series [5], the system named is Mus musculus. Put plainly: In-vivo inhibition of DAAO in CD-1 mouse assessed as plasma clearance of D-serine at 30 mg/kg, po upto 3 hrs. It is filed as organism-based.
Series [6] deals with Mus musculus. Put plainly: In-vivo inhibition of DAAO in CD-1 mouse assessed as plasma clearance of D-serine at 30 mg/kg, po after 3 hrs. It is filed as organism-based.
Series [7] has as its system Mus musculus. Put plainly: AUC (0 to 6 hrs) in CD-1 mouse plasma at 30 mg/kg, po by HPLC-MS analysis. The class given is ADME, organism-based. The arrangement: time < 6 hr, dose 30 mg/kg, route oral. Conditions: in vivo; call rule not given here.
The species entered for series [8] is Mus musculus. Conditions: CD-1.
Series [9] is described as follows: Plasma protein binding in CD-1 mouse at 30 mg/kg, po by ultrafiltration technique. It is filed as ADME, organism-based. Conditions: read-out: PPB (converted).
The mark [10] stands for this setting: liver microsomes, read-out: Stability.

pIC50: −log10 of the molar value.

Chain of D-amino-acid oxidase (P14920 whole entry): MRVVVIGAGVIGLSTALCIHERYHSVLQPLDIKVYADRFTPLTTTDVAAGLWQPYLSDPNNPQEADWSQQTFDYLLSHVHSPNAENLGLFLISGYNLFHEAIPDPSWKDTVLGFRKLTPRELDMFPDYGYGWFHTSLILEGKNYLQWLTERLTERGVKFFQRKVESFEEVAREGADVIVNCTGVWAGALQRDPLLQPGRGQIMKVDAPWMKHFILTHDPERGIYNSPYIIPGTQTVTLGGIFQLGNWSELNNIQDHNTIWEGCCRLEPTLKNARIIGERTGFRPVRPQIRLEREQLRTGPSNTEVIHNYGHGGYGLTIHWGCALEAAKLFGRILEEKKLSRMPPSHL

As to `CC(C)(C)c1ccc(CSc2n[nH]c(=O)c(O)n2)cc1`, at D-amino-acid oxidase, the pIC50 was 6.52.
Take `O=c1[nH]nc(SCc2cccc(-c3ccccc3)c2)nc1O`: the negative logarithm of the IC50 (pIC50) on D-amino-acid oxidase is 6.15.
As to `O=c1[nH]nc(SCc2ccc3cc(F)ccc3c2)nc1O`, the Stability in series [1] came to 91%; in series [2], 95%.
As for `O=c1[nH]nc(SCc2ccc(-c3ccccc3)cc2)nc1O`, the pIC50 on D-amino-acid oxidase was 7.05.
On to `O=c1[nH]nc(SCC2CCCCC2)nc1O`, for which, on D-amino-acid oxidase, the pIC50 was 6.22.
Regarding `O=c1[nH]nc(Cc2ccccc2)nc1O`, the pIC50 at D-amino-acid oxidase was 7.15.
As to `O=c1[nH]nc(SCc2ccc(Cl)c(Cl)c2)nc1O`, the pIC50 on D-amino-acid oxidase is 7.30.
As to `O=c1[nH]nc(SCc2ccc(Cl)cc2)nc1O`, the pIC50 at D-amino-acid oxidase was 7.52.
Regarding `O=c1[nH]nc(SCc2noc3ccccc23)nc1O`, the pIC50 on D-amino-acid oxidase is 6.70.
The same measure, in the same setting: then `O=c1[nH]nc(SCc2ccc(I)cc2)nc1O`, with 7.30.
Still for that read-out and setting: then `O=c1[nH]nc(SCCc2ccccc2)nc1O`, with 4.40; and `O=c1[nH]nc(SCc2ccccc2)nc1O`, with 7.00.
For the compound `O=c1[nH]c(=O)n(Cc2cccc3ccccc23)nc1O`, the remaining at 1 h in series [1] (setting [10]) and in [2] (setting [10]) was more than 99% in each case.
`O=c1[nH]nc(CCc2ccccc2)nc1O`: in the series on Mus musculus [3], the “fold change (FC)” value amounted to 1.7. Also, the Tmax in series [4] is 30 min. For the same compound, the results for the “inhibition (INH)” value in the series on Mus musculus [5] and with Mus musculus [6] were “Active” and “Not Active”, respectively. Further, the values for the Stability in series [1] and in series [2] were 79% and 98%, respectively. Besides, the values for the AUC in the series with Mus musculus [7] and in the series filed under Mus musculus [8] were 8070 ng·h/mL and 74200 ng·h/mL, respectively. The fraction unbound in series [9] is 0.26. Further, the pIC50 at D-amino-acid oxidase was 7.22.
For `O=c1[nH]nc(CCCc2ccccc2)nc1O`, the pIC50 at D-amino-acid oxidase was 5.40.
